This note sets out measurements from patent US20070203066A1, “Compositions and methods for inhibiting cellular proliferation” (priority 2005, published 2007).

The term pIC50 denotes the negative decadic logarithm of the IC50, by convention in mol/L.

pIC50: −log10 of the molar value.

This experiment deals with HUVECs. The class given is cell-based. As to conditions: HUVEC proliferation, bFGF at 10 ng/ml or VEGF at 5 ng/ml, 48 hours, BrdU incorporation; read-out: IC50 on HUVECs. The method, boiled down: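 Proliferation read-out: BrdU incorporation after 48-hour culture (37 ° C, 5% CO2) with graded peptide doses. Cells were in EBM with 2% FCS at 5,000 per well, driven by VEGF (5 ng/ml) or bFGF (10 ng/ml), added after ≥12-hour attachment.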
Regarding AAKRKRKKQRVKIAYEEIFVQNM [compound 72], the pIC50 was 4.52 to 5.00.
For ATKRKRKKQRVKIIFVQNM [compound 123], the negative logarithm of the IC50 (pIC50) is > 5.00.
Next, KAARKRKKQRVKIAYEEIFVQNM [compound 56]: 4.52 to 5.00.
Next, KAKRKRKKQRVKIIFVQNM [compound 122]: > 5.00.
Next, KKKKKMPKLRFASRIRKIRKKQF [compound 71]: 4.52 to 5.00.
Consider KKQRVKIAYEEIF [compound 70], for which the pIC50 was < 4.52.
For KKQRVKIAYEEIFVKNM [compound 12], the negative-log IC50 (pIC50) was > 5.00.
On to KKQRVKIAYEEIFVQNM [compound 24], for which the pIC50 is < 4.52.
With KKSSKRAKTQRRRKSFVKMYENIH [compound 8], the pIC50 was < 4.52.
Next, KNKSKGVVKIQRRKAPFVVYESIN [compound 7]: < 4.52.
Next, KRKKQQRVKIAYEEIFV [compound 77]: < 4.52; KRKKQRVKIAYEEIF [compound 68]: < 4.52; KRKKQRVKIAYEEIFV [compound 63]: > 5.00.
Next, KRKKQRVKIAYEEIFVKNM [compound 10]: 4.52 to 5.00.
As for KRKKQRVKIAYEEIFVQNM [compound 22], the pIC50 is < 4.52.
In the case of KRKKQRVKIIF [compound 83], the negative-log IC50 (pIC50) is < 4.52.
Next, KRKKQRVKIIFV [compound 88]: < 4.52; KRKRKKQQRVKIAYEEIFV [compound 75]: 4.52 to 5.00.
On to KRKRKKQRVKIAYEEIF [compound 66], for which the pIC50 is 4.52 to 5.00.
For KRKRKKQRVKIAYEEIFV [compound 61], the pIC50 is 4.52 to 5.00.
Next, KRKRKKQRVKIAYEEIFVKNM [compound 3]: 4.52 to 5.00.
Next, KRKRKKQRVKIAYEEIFVQNM [compound 20]: < 4.52; KRKRKKQRVKIIF [compound 81]: 4.52 to 5.00; KRKRKKQRVKIIFV [compound 87]: > 5.00.
Take KTARKRKKQRVKIIFVQNM [compound 121]: the pIC50 was > 5.00.
Next, KTKAARKKQRVKIAYEEIFVQNM [compound 55]: < 4.52; KTKAKRKKQRVKIIFVQNM [compound 120]: > 5.00; KTKKQRVKIAYEEIFVQNM [compound 57]: < 4.52.
Next, KTKRARKKQRVKIIFVQNM [compound 119]: > 5.00; KTKRKAAKQRVKIAYEEIFVQNM [compound 54]: < 4.52; KTKRKAKKQRVKIIFVQNM [compound 118]: > 5.00.
Regarding KTKRKRAKQRVKIIFVQNM [compound 117], the negative logarithm of the IC50 (pIC50) was > 5.00.
With KTKRKRIKQRVKRAYEEIF [compound 137], the negative logarithm of the IC50 (pIC50) is < 4.52.
Next, KTKRKRKAARVKIAYEEIFVQNM [compound 53]: < 4.52; KTKRKRKAQRVKIIFVQNM [compound 116]: > 5.00; KTKRKRKKARVKIIFVQNM [compound 115]: > 5.00.
Next, KTKRKRKKIAYEEIFVQNM [compound 58]: < 4.52; KTKRKRKKQAAKIAYEEIFVQNM [compound 73]: < 4.52.
Take KTKRKRKKQAVKIIFVQNM [compound 114]: the pIC50 was < 4.52.
Next, KTKRKRKKQAYEEIFVQNM [compound 29]: < 4.52; KTKRKRKKQRAKIIFVQNM [compound 113]: > 5.00; KTKRKRKKQRVAAAYEEIFVQNM [compound 50]: < 4.52.
Consider KTKRKRKKQRVAIIFVQNM [compound 112], for which the pIC50 is > 5.00.
Next, KTKRKRKKQRVEEIFVQNM [compound 31]: < 4.52; KTKRKRKKQRVKAIFVQNM [compound 111]: 4.52 to 5.00; KTKRKRKKQRVKEIFVQNM [compound 32]: < 4.52.
For KTKRKRKKQRVKI [compound 38], the pIC50 was < 4.52.
As to KTKRKRKKQRVKIA [compound 37], the negative-log IC50 (pIC50) was < 4.52.
Next, KTKRKRKKQRVKIAAEEIFVQNM [compound 49]: < 4.52.
Next, KTKRKRKKQRVKIAFVQNM [compound 110]: 4.52 to 5.00; KTKRKRKKQRVKIAY [compound 36]: < 4.52.
Next, KTKRKRKKQRVKIAYAAIFVQNM [compound 48]: < 4.52; KTKRKRKKQRVKIAYE [compound 35]: < 4.52.
KTKRKRKKQRVKIAYEE [compound 18]: the pIC50 is 4.52 to 5.00.
Consider KTKRKRKKQRVKIAYEEAAVQNM [compound 47], for which the pIC50 is < 4.52.
Regarding KTKRKRKKQRVKIAYEEI [compound 17], the pIC50 was 4.52 to 5.00.
KTKRKRKKQRVKIAYEEIF [compound 16]: the pIC50 is 4.52 to 5.00.
With KTKRKRKKQRVKIAYEEIFAANM [compound 46], the pIC50 was 4.52 to 5.00.
Next, KTKRKRKKQRVKIAYEEIFV [compound 15]: > 5.00; KTKRKRKKQRVKIAYEEIFVK [compound 14]: > 5.00; KTKRKRKKQRVKIAYEEIFVKN [compound 13]: > 5.00.
Next, KTKRKRKKQRVKIAYEEIFVKNM [compound 5]: > 5.00.
Regarding KTKRKRKKQRVKIAYEEIFVQ [compound 26], the pIC50 is > 5.00.
Next, KTKRKRKKQRVKIAYEEIFVQAA [compound 45]: 4.52 to 5.00.
As for KTKRKRKKQRVKIAYEEIFVQN [compound 25], the pIC50 is > 5.00.
With KTKRKRKKQRVKIAYEEIM [compound 42], the pIC50 was < 4.52.
Next, KTKRKRKKQRVKIAYEENM [compound 41]: < 4.52; KTKRKRKKQRVKIAYEEVFVKNM [compound 6]: > 5.00; KTKRKRKKQRVKIAYEQNM [compound 40]: < 4.52.
KTKRKRKKQRVKIAYVQNM [compound 39]: the pIC50 was 4.52 to 5.00.
As to KTKRKRKKQRVKIIAVQNM [compound 109], the pIC50 is < 4.52.
On to KTKRKRKKQRVKIIF [compound 79], for which the pIC50 is < 4.52.
Turning to KTKRKRKKQRVKIIFAQNM [compound 108], the pIC50 is 4.52 to 5.00.
Next, KTKRKRKKQRVKIIFV [compound 85]: > 5.00.
On to KTKRKRKKQRVKIIFVANM [compound 107], for which the pIC50 is > 5.00.
Next, KTKRKRKKQRVKIIFVQAM [compound 106]: > 5.00.
As for KTKRKRKKQRVKIIFVQNA [compound 105], the pIC50 is > 5.00.
Next, KTKRKRKKQRVKIIFVQNM [compound 33]: > 5.00; KTKRKRKKQRVKRAYEEIF [compound 136]: < 4.52.
As to KTKRKRKKQRYEEIFVQNM [compound 30], the pIC50 is < 4.52.
Next, KTKRKRVKIAYEEIFVQNM [compound 52]: < 4.52; “NKRKKQRVKIIFVKVFIIKVRQKKRKN [compound 151]”: > 5.00.
Next, RKKQQRVKIAYEEIFV [compound 78]: < 4.52; RKKQRVKIAYEEIF [compound 69]: < 4.52; RKKQRVKIAYEEIFV [compound 64]: 4.52 to 5.00.
Next, RKKQRVKIAYEEIFVKNM [compound 11]: < 4.52; RKKQRVKIAYEEIFVQNM [compound 23]: 4.52 to 5.00; RKKQRVKIIF [compound 84]: < 4.52.
Turning to RKKQRVKIIFV [compound 89], the pIC50 was < 4.52.
Next, RKRKKQQRVKIAYEEIFV [compound 76]: < 4.52; RKRKKQRVKIAYEEIF [compound 67]: < 4.52.
Consider RKRKKQRVKIAYEEIFV [compound 62], for which the negative-log IC50 (pIC50) is < 4.52.
Next, RKRKKQRVKIAYEEIFVKNM [compound 4]: 4.52 to 5.00; RKRKKQRVKIAYEEIFVQNM [compound 21]: < 4.52.
Regarding RKRKKQRVKIIF [compound 82], the pIC50 is < 4.52.
Next, RKRKKQRVKIIFV [compound 90]: 4.52 to 5.00; RVKIAYEEIFVQNM [compound 44]: < 4.52.
TKRKRKKQQRVKIAYEEIFV [compound 74]: the pIC50 was < 4.52.
Regarding TKRKRKKQRVKIAYEEIF [compound 65], the pIC50 is < 4.52.
Next, TKRKRKKQRVKIAYEEIFV [compound 60]: 4.52 to 5.00.
Next, TKRKRKKQRVKIAYEEIFVKNM [compound 2]: 4.52 to 5.00; TKRKRKKQRVKIAYEEIFVQNM [compound 19]: < 4.52; TKRKRKKQRVKIIF [compound 80]: < 4.52.
Next, TKRKRKKQRVKIIFV [compound 86]: 4.52 to 5.00.
Turning to VKIAYEEIFVQNM [compound 43], the pIC50 is < 4.52.
Next, YGRKKRRQRRR [compound 445]: < 4.52.
